Columns and labels:
Format in all cases: in vivo
Leptosphaeria nodorum = experiment: Glume Blotch of Wheat (LEPTNO), whole-plant fungicide test; conditions: Parastagonospora nodorum, foliar, 24 h, 200 ppm on foliage, one-day protectant test, read-out: LEPTNO percent control of disease
Cochliobolus sativus = experiment: Spot Blotch of Wheat (COCHSA), whole-plant fungicide test; conditions: Bipolaris sorokiniana, foliar, 24 h, 200 ppm on foliage, one-day protectant test, read-out: COCHSA percent control of disease
Description: The activity of the compounds as effective fungicides was determined by applying the compounds to plants and observing control of fungal disease. The compounds were formulated at 200 ppm in 10 vol. percent acetone plus 90 vol. percent Triton X water (deionized water 99.99 wt. percent+0.01 wt. percent Triton X100), giving a “formulated test compound.” In a few cases, compounds were formulated at 100, 75 or 8.3 ppm rather than 200 ppm in 10 vol. percent acetone plus 90 vol. percent Triton X water (deionized water 99.99 wt. percent+0.01 wt. percent Triton X100), giving a ‘formulated test compound’. The compounds were tested for ability to control plant diseases in a 1-day protectant test (1DP) or a 2-day curative test (2DC). Formulated test compounds were applied to plants using a turn table sprayer fitted with two opposing air atomization nozzles which delivered approximately 1500 L/ha of spray volume. Plants were inoculated with spores of the fungus the next day (1DP), then incubated in an environment conducive to disease development. In a few cases, the compounds were tested for ability to control plant disease in a two-day curative test. Plants were inoculated with spores of the fungus two days prior to compound application, and incubated in an environment conducive to disease development both before and after compound application (2DC). For all types of tests, disease severity was evaluated 4 to 28 days later, depending on the speed of disease development.
Each pot contained 3-8 seedlings. These plants were sprayed until wet with the formulated test compound. On the following day, the leaves were inoculated with an aqueous spore suspension of Cochliobolus sativus and the plants were kept in high humidity for one to two days to permit spores to germinate and infect the leaf. The plants were then transferred to a greenhouse until disease developed on untreated control plants.
The following table presents the activity of typical compounds of the present invention when evaluated in these experiments. The effectiveness of the test compounds in controlling disease was determined by assessing the severity of disease on treated plants, then converting the severity to percent control based on the level of disease on untreated, inoculated plants.
TABLE 4: Activity of compounds as fungicides. Data are the level at which the given disease was controlled when the given compound was applied to the foliage of the plant at 200 ppm. In a few cases (noted in the table) the compound was applied to the plant at 100, 75 or 8.3 ppm. The plant was inoculated with the fungus one day after treatment. In a few cases (noted in the table) the plant was inoculated with the fungus two days before treatment.

Colletotricum lagenarium = experiment: Cucumber Anthracnose (COLLLA), whole-plant fungicide test; conditions: Cucumis sativus, 24 h, one-day protectant test, read-out: COLLLA percent control of disease; for pest or weed control at 200 ppm: foliar, 200 ppm on foliage; for pest or weed control at 100 ppm: 100 ppm (footnote a)
Septoria tritici = experiment: Speckled Leaf Blotch of Wheat (SEPTTR), whole-plant fungicide test; conditions: Zymoseptoria tritici, foliar, 24 h, 200 ppm on foliage, one-day protectant test, read-out: SEPTTR percent control of disease
Phytophthora infestans = experiment: whole plant or invertebrate; conditions: Phytophthora infestans, in Solanum lycopersicum, 24 h; for pest or weed control at 200 ppm: foliar, read-out: PHYTIN percent control of disease, 200 ppm on foliage, tomato, one-day protectant test; for pest or weed control at 100 ppm: read-out: PHYTIN percent control of disease, 100 ppm (footnote a), tomato, one-day protectant test
Erysiphe cichoracaerum = experiment: Cucumber Powdery Mildew (ERYSCI), whole-plant fungicide test; conditions: Erysiphe, foliar, 24 h, 200 ppm on foliage, one-day protectant test, read-out: ERYSCI percent control of disease
[1] = system: Puccinia recondita tritici; experiment: Leaf Rust of Wheat (PUCCRT), whole-plant fungicide test; conditions: Puccinia recondita, 24 h, one-day protectant test, read-out: PUCCRT percent control of disease; for pest or weed control at 200 ppm: foliar, 200 ppm on foliage; for pest or weed control at 100 ppm: 100 ppm (footnote a)
Magnaporthe grisea = experiment: whole plant or invertebrate; conditions: Pyricularia oryzae, in Oryza sativa, foliar, 24 h, read-out: PYRIOR percent control of disease, 200 ppm on foliage, rice, one-day protectant test
[2] = system: Erysiphe graminis f. sp. tritici; experiment: Powdery Mildew of Wheat (ERYSGT), whole-plant fungicide test; conditions: Blumeria graminis, 24 h, 100 ppm (footnote a), one-day protectant test, read-out: ERYSGT percent control of disease

Compound | pest or weed control at 200 ppm (Leptosphaeria nodorum) [%] | pest or weed control at 200 ppm (Cochliobolus sativus) [%] | pest or weed control at 200 ppm (Colletotricum lagenarium) [%] | pest or weed control at 200 ppm (Septoria tritici) [%] | pest or weed control at 200 ppm (Phytophthora infestans) [%] | pest or weed control at 200 ppm (Erysiphe cichoracaerum) [%] | pest or weed control at 200 ppm [1] [%] | pest or weed control at 200 ppm (Magnaporthe grisea) [%] | pest or weed control at 100 ppm [2] [%] | pest or weed control at 100 ppm (Colletotricum lagenarium) [%] | pest or weed control at 100 ppm (Phytophthora infestans) [%] | pest or weed control at 100 ppm [1] [%]
CC(Nc1ncnc2scc(Cl)c12)c1ccc(NC=O)cc1 (stereo not shown) [Compound 58] | 0 to 49 | 0 to 49 | 50 to 79 | 50 to 79 | 0 to 49 | 0 to 49 | 80 to 100 | 80 to 100 | – | – | – | –
CC(=O)Nc1ccc(C(C)Nc2ncnc3scc(Cl)c23)cc1 (stereo not shown) [Compound 59] | 0 to 49 | 0 to 49 | 0 to 49 | 50 to 79 | 0 to 49 | 50 to 79 | 80 to 100 | 80 to 100 | – | – | – | –
CC(Nc1ncnc2scc(Br)c12)c1ccc(F)nc1 (stereo not shown) [Compound 60] | 0 to 49 | 0 to 49 | 80 to 100 | 0 to 49 | 0 to 49 | 80 to 100 | 80 to 100 | 80 to 100 | – | – | – | –
CC(Nc1ncnc2scc(Cl)c12)c1ccc2c(c1)OCO2 (stereo not shown) [Compound 61] | 80 to 100 | 50 to 79 | 0 to 49 | 50 to 79 | 0 to 49 | 80 to 100 | 80 to 100 | 50 to 79 | – | – | – | –
COCC(Nc1ncnc2scc(Cl)c12)c1ccccc1 (stereo not shown) [Compound 62] | 0 to 49 | 0 to 49 | 0 to 49 | 50 to 79 | 0 to 49 | 80 to 100 | 80 to 100 | 80 to 100 | – | – | – | –
COc1ccc(C(C)Nc2ncnc3scc(Cl)c23)cc1C (stereo not shown) [Compound 63] | 50 to 79 | – | 0 to 49 | – | 50 to 79 | 80 to 100 | 80 to 100 | 80 to 100 | 80 to 100 | – | – | –
Clc1ccc(CCNc2ncnc3scc(Cl)c23)cn1 [Compound 65] | 0 to 49 | – | 0 to 49 | – | 80 to 100 | 80 to 100 | 80 to 100 | 0 to 49 | 0 to 49 | – | – | –
COc1ccc(C(C)Nc2ncnc3scc(Cl)c23)cc1F (stereo not shown) [Compound 66] | 0 to 49 | – | 0 to 49 | – | 50 to 79 | 80 to 100 | 80 to 100 | 80 to 100 | 80 to 100 | – | – | –
COc1ccc(C(C)Nc2ncnc3scc(F)c23)cc1 (stereo not shown) [Compound 76, (5-Fluorothieno[2,3-d]pyrimidin-4-yl)-[1-(4-methoxyphenyl)ethyl]amine] | – | – | – | – | – | – | – | – | 0 to 49 | 50 to 79 | 80 to 100 | 80 to 100
COc1ccc(C(C)Nc2ncnc3scc(F)c23)cn1 (stereo not shown) [Compound 77] | – | – | – | – | – | – | – | – | 0 to 49 | 50 to 79 | 80 to 100 | 80 to 100
CC(Nc1ncnc2scc(F)c12)c1ccc(OCC(F)(F)F)cc1 (stereo not shown) [Compound 78] | – | – | – | – | – | – | – | – | 80 to 100 | 80 to 100 | 80 to 100 | 80 to 100

— US8008487B2, “Substituted thieno[2,3-D]pyrimidines as fungicides” (priority 2004, dated 2011)
